Measured values taken from patent US20130079353A1, “FLUOROQUINOLONES FOR THE TREATMENT AND/OR PROPHYLAXIS OF INFLAMMATORY DISEASES” (priority 2009, published 2013).

Tests used:
CD95L = CD95L gene expression, quantitative real-time SYBRGreen PCR (vs GAPDH); format: cell-based, human; conditions: T-cells from patients with atopic dermatitis, 50 μg/ml for 7 days, anti-CD3 for 1 h
Experimental: (§1) Quantitative real-time-PCR was performed using the Power SYBR Green PCR Master Mix (Applied Biosystems). Gene expression was analyzed using the 7500 Real-Time PCR Systems and Sequence Detection Software version 1.2.2 (Applied Biosystems). IL-2 and IL-4 gene expression levels were normalized using glyceraldehyde-3-phosphat dehydrogenase (GAPDH) expression levels as an endogenous reference.
(§2) Next, the cells were activated via plate-bound anti-CD3 antibody for 1 h and the gene expression levels for IL-4 (sec FIGS. 6A and 13), IL-2 (see FIGS. 6C and D) and CD95L (see FIGS. 6E and F) were assayed. […] A clear inhibition of TCR induced up-regulation of IL-4, IL-2 and CD95L was detected.

IL-4 [1] = test: Activation-induced IL-4 secretion, ELISA; format: cell-based, human; conditions: 50 μg/ml for 7 days, anti-CD3 (30 μg/ml) and anti-CD28 (1 μg/ml) for 16 h
Experimental: IL-2 and IL-4 concentrations were measured by enzyme-linked immunosorbent (ELISA) assay (BD OptEIA Set Human IL-2/IL-4, Becton Dickinson). Resting peripheral human T-cells (“day 0” T-cells)+/−rotenone (10 μg/ml, 15 min pre-treatment) were stimulated with plate-bound anti-CD3 monoclonal antibody (30 μg/ml) and soluble anti-CD28 monoclonal antibody (1 μg/ml) for 4 h. Next, the supernatants were cleared by centrifugation and the measurements were performed according to the manufacturer's instructions.
Human peripheral blood T-cells from healthy donors or patients with atopic dermatitis were pre-activated by PHA treatment and subsequently cultured for 7 days in presence or absence of 50 μg/ml cipro. Next, T-cells were activated via plate-bound anti-CD3 antibody (30 μg/ml) and soluble anti-CD28 antibody (1 μg/ml) for 16 h. Supernatants were harvested and secreted amounts of IL-4 were measured by ELISA. […] Therefore, inhibition of IL-4 transcription is not compensated by translational or post translational mechanisms.

citrate synthase = test: Activity of citrate synthase in treated T-cells; format: cell-based; conditions: prolonged, long-term treatment of pre-activated human T-cells
Experimental: (§3) Activities of the respiratory chain single enzyme complexes I and II, as well as of citrate synthase, were measured as described previously with minor modifications. Ciprofloxacin-treated cells were depleted of dead cells via Biocoll (Biochrom) gradient centrifugation. The cell number in different batches of ciprofloxacin-treated cells was equalized. For measurement of the enzymatic activities, samples were prepared as described previously with minor modifications. 4×10^7 cells were washed with PBS, shock-frozen in liquid nitrogen and thawed on ice. Next, cells were permeabilized by 15 min incubation with 1 ml of 0.015% digitonin (w/v) in respiratory chain (RC) buffer (250 mM sucrose, 50 mM KCl, 5 mM MgCl2, 20 mM Tris-HCl, pH 7.4), washed with RC buffer and centrifuged at 8 000 rpm for 5 min at 4° C. For a single data point the activity measurement was performed three times in triplicates and the average value was calculated. Steady state activity was recorded in a 96-well plate spectrophotometer using a thermostated chamber and a final volume of 300 μl. Enzymatic activities of complex I and complex II were recorded as NADH oxidation at 340-400 nm and as succinate oxidation at 610-750 nm, respectively. Citrate synthase activity was detected after two additional freeze/thaw cycles as 5,5′-dithiobis-(2-nitrobenzoic acid) (DTNB) reduction at 412 nm.

[2] = test system: activation-induced ROS generation in pre-activated primary human T-cells; test: Activation-induced ROS generation, H2DCF-DA staining and FACS; format: cell-based; conditions: PHA-pre-activated T-cells, 7 days of Cipro treatment, plate-bound anti-CD3 (30 μg/ml), 1 h after activation
Experimental: Cells were stained with H2DCF-DA (5 μM) for 30 min. Next, cells were then divided and stimulated with either plate-bound anti-CD3 antibody (30 μg/ml) or PMA (10 ng/ml). Treatment was terminated by ice-cold PBS and ROS generation was determined by FACS analysis. If not stated otherwise, ROS generation was quantified as the increase in mean fluorescence intensity (MFI), calculated according to the following formula: increase in
MFI(%)=[(MFIstimulated−MFIunstimulated)/MFIunstimulated]×100 9.
After PHA-pre-activated and 7 days of Cipro treatment, T-cells were stained with redox sensitive fluorescent probe H2DCF-DA (20 min, 37° C.) and subsequently activated via plate-bound agonistic anti-CD3 antibody (30 μg/ml). The level of activation-induced ROS was assessed by FACS measurement 1 h after activation and calculated as percentage increase in MFI (untreated control set to 100%).

IL-2 [3] = test: IL-2 gene expression, quantitative real-time SYBRGreen PCR (vs GAPDH); format: cell-based, human
Experimental: as §1
(§4) The mean induction ratios were calculated.
(§5) Total cellular RNA was isolated and reverse-transcribed. Expression of IL-2 (see FIG. 4A) and IL-4 (see FIG. 4B) was analyzed using quantitative real-time SYBRGreen PCR. IL-2 and IL-4 expression levels were estimated by gene expression ratio between IL-2 or IL-4 gene and GAPDH genes.
Total cellular RNA was isolated and reverse-transcribed. Expression of IL-2 (see FIG. 5A) and IL-4 (see FIG. 5B) was analyzed using quantitative real-time SYBRGreen PCR. IL-2 and IL-4 expression levels were estimated by gene expression ratio between IL-2 or IL-4 gene and GAPDH genes. […]
as §2

[4] = test system: complex II (succinate dehydrogenase); test: Activity of complex II in treated T-cells; format: cell-based; conditions: prolonged, long-term treatment of pre-activated human T-cells
Experimental: as §3

IL-2 [5] = conditions: short-term (up to 96 hours) or simultaneous treatment, PHA-activated human T-cells; cited from earlier work
[6] = test system: mitochondrial respiratory complex I (NADH-quinone oxidoreductase); test: Activity of mitochondrial respiratory complex I in treated T-cells, real-time spectrophotometry; format: cell-based, human; conditions: PHA-pre-activated T-cells treated 7 days; 15 min, 20° C.; normalized to total protein content; three donors
Experimental: as §3, with “Next, cells were permeabilized by 15 min incubation with 1 ml of 0.015% digitonin (w/v) in respiratory chain (RC) buffer (250 mM sucrose, 50 mM KCl, 5 mM MgCl2, 20 mM Tris-HCl, pH 7.4), washed with RC buffer and centrifuged at 8 000 rpm for 5 min at 4° C.” left out
PHA-pre-activated and treated T-cells (see Example 2.1) were shock-frozen in liquid nitrogen. Next, activity of mitochondrial respiratory complex I (NADH-quinone oxidoreductase) was measured by real-time spectrophotometry. […]

[7] = test system: PHA-activated human T-cells; conditions: short-term (up to 96 hours) or simultaneous treatment; cited from earlier work
IL-4 [8] = test: IL-4 gene expression, quantitative real-time SYBRGreen PCR (vs GAPDH); format: cell-based, human
Experimental: as §1, §4, §5
Total cellular RNA was isolated and reverse-transcribed. Expression of IL-2 (see FIG. 5A) and IL-4 (see FIG. 5B) was analyzed using quantitative real-time SYBRGreen PCR. IL-2 and IL-4 expression levels were estimated by gene expression ratio between IL-2 or IL-4 gene and GAPDH genes. Data are shown as fold increase of induction of gene expression, where anti-CD3 activated cells are compared with respective unstimulated controls.
as §2

[9] = PHA-pre-activated primary human T-cells, different amounts of ciprofloxacin for 7 days, not restimulated
[10] = T-cells from patients with atopic dermatitis, 50 μg/ml for 7 days, anti-CD3 for 1 h

For O=C(O)c1cn(C2CC2)c2cc(N3CCNCC3)c(F)cc2c1=O [ciprofloxacin, 1-cyclopropyl-6-fluoro-1,4-dihydro-4-oxo-7-(1-piperazinyl)-3-quinoline-carboxylic acid], the “anti-CD3-induced increase in CD95L transcripts levels” value (CD95L) was “clearly blocked”, the “CD3/CD28 triggering-induced IL-4 secretion” value (IL-4 [1]; T-cells from healthy donors) was “blocked” and the “CD3/CD28 triggering-induced IL-4 secretion” value (IL-4 [1]; T-cells from patients with atopic dermatitis) was “blocked”. The “activity of citrate synthase” value (citrate synthase) was “unaffected”, the “activation-induced ROS generation” value [2] was “blocks” and the “basal IL-2 expression” value (IL-2 [3]; [9]) was “increases basal IL-2 and IL-4 expression slightly”. For the same compound, the “anti-CD3-induced increase in IL-2 transcripts levels” value (IL-2 [3]; [10]) was “clearly blocked”, the “activity of complex II (succinate dehydrogenase)” value [4] was “unaffected” and the IL-2 secretion (IL-2 [5]) was “enhanced”. For the same compound, the “activity of mitochondrial respiratory complex I” value [6] was “impaired activity”, the “proliferation of PHA-activated human T-cells” value [7] was “enhanced” and the “basal IL-4 levels, treated PHA-pre-activated T cells vs "day 0" T cells” value (IL-4 [8]; 5 healthy donors, 50 μg/ml for 7 days, P<0.05 (0.03125)) was “significant down-regulation”. The “basal IL-4 levels, treated PHA-pre-activated T cells vs "day 0" T cells” value (IL-4 [8]; 7 patients with atopic dermatitis, 50 μg/ml for 7 days, P<0.01 (0.00781)) was “significant down-regulation”, the “basal IL-4 expression” value (IL-4 [8]; [9]) was “increases basal IL-2 and IL-4 expression slightly” and the “anti-CD3-induced increase in IL-4 transcripts levels” value (IL-4 [8]; [10]) was “clearly blocked”.
